Measurements as given in PMC11876601 (Molecular Systems Biology, 2025).
Read-outs that look alike come from different tables or passages of the source.

Tests used:
Experiment in all cases: cells
HuP-T4 = test system: HuP-T4; set-up: Viability of PDAC cell lines, ATPlite luminescence, 11-dose single-agent curve fit; conditions: Homo sapiens, HuP-T4, 72 h, read-out: EC50 [nM]
In short: (§1)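 cells (1000 to 5000 per well) seeded 24 h before drug addition in a screen at 0.2% final DMSO. Controls were drug-free wells (negative) and 5 µM staurosporine (positive).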

HPDE [1] = test system: HPDE; set-up: Viability of PDAC cell lines, ATPlite luminescence, 11-dose single-agent curve fit; conditions: HPDE, 72 h, read-out: EC50 [nM]
In short: as §1

Capan-1 [2] = test system: Capan-1; set-up: ATPlite luminescence viability of PDAC cell lines, 11-dose single-agent curves, 4-parameter fit; conditions: Homo sapiens, CAPAN-1, 72 h, read-out: EC50 [nM]
In short: (§2)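 cells (1000 to 5000 per well) seeded 24 h before drug addition in a combination screen at 0.2% final DMSO. Controls were drug-free wells (negative) and 5 µM staurosporine (positive).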

PSN-1 [3] = test system: PSN-1; set-up: ATPlite luminescence viability of PDAC cell lines, 11-dose single-agent curves, 4-parameter fit; conditions: Homo sapiens, PSN1, 72 h, read-out: EC50 [nM]
In short: as §2

Dan-G [4] = test system: Dan-G; set-up: ATPlite luminescence viability of PDAC cell lines, 11-dose single-agent curves, 4-parameter fit; conditions: 72 h, read-out: EC50 [nM]
In short: as §2

BxPC-3 [5] = test system: BxPC-3; set-up: ATPlite luminescence viability of PDAC cell lines, 11-dose single-agent curves, 4-parameter fit; conditions: Homo sapiens, BXPC-3, 72 h, read-out: EC50 [nM]
In short: as §2

Suit2-07 [6] = test system: Suit2-07; set-up: ATPlite luminescence viability of PDAC cell lines, 11-dose single-agent curves, 4-parameter fit; conditions: 72 h, read-out: EC50 [nM]
In short: as §2

PANC-1 [7] = test system: PANC-1; set-up: ATPlite luminescence viability of PDAC cell lines, 11-dose single-agent curves, 4-parameter fit; conditions: Homo sapiens, PANC-1, 72 h, read-out: EC50 [nM]
In short: as §2

AsPC-1 [8] = test system: AsPC-1; set-up: ATPlite luminescence viability of PDAC cell lines, 11-dose single-agent curves, 4-parameter fit; conditions: Homo sapiens, ASPC1, 72 h, read-out: EC50 [nM]
In short: as §2

PaTu-8988-T [9] = test system: PaTu-8988-T; set-up: ATPlite luminescence viability of PDAC cell lines, 11-dose single-agent curves, 4-parameter fit; conditions: Homo sapiens, PaTu 8988t, 72 h, read-out: EC50 [nM]
In short: as §2

Colo-357 [10] = test system: Colo-357; set-up: ATPlite luminescence viability of PDAC cell lines, 11-dose single-agent curves, 4-parameter fit; conditions: Homo sapiens, COLO357, 72 h, read-out: EC50 [nM]
In short: as §2

FAMPAC [11] = test system: FAMPAC; set-up: ATPlite luminescence viability of PDAC cell lines, 11-dose single-agent curves, 4-parameter fit; conditions: 72 h, read-out: EC50 [nM]
In short: as §2

MiaPaCa-2 = test system: MiaPaCa-2; set-up: ATPlite luminescence viability of PDAC cell lines, 11-dose single-agent curves, 4-parameter fit; conditions: Homo sapiens, MIA PaCa-2, 72 h, read-out: EC50 [nM]
In short: as §2

PANC-1 [12] = test system: PANC-1; set-up: Viability of PDAC cell lines, ATPlite luminescence, 11-dose single-agent curve fit; conditions: Homo sapiens, PANC-1, 72 h, read-out: EC50 [nM]
In short: as §1

AsPC-1 [13] = test system: AsPC-1; set-up: Viability of PDAC cell lines, ATPlite luminescence, 11-dose single-agent curve fit; conditions: Homo sapiens, ASPC1, 72 h, read-out: EC50 [nM]
In short: as §1

Colo-357 [14] = test system: Colo-357; set-up: Viability of PDAC cell lines, ATPlite luminescence, 11-dose single-agent curve fit; conditions: Homo sapiens, COLO357, 72 h, read-out: EC50 [nM]
In short: as §1

HPDE [15] = test system: HPDE; set-up: ATPlite luminescence viability of PDAC cell lines, 11-dose single-agent curves, 4-parameter fit; conditions: HPDE, 72 h, read-out: EC50 [nM]
In short: as §2

Suit2-07 [16] = test system: Suit2-07; set-up: Viability of PDAC cell lines, ATPlite luminescence, 11-dose single-agent curve fit; conditions: 72 h, read-out: EC50 [nM]
In short: as §1

Capan-1 [17] = test system: Capan-1; set-up: Viability of PDAC cell lines, ATPlite luminescence, 11-dose single-agent curve fit; conditions: Homo sapiens, CAPAN-1, 72 h, read-out: EC50 [nM]
In short: as §1

Dan-G [18] = test system: Dan-G; set-up: Viability of PDAC cell lines, ATPlite luminescence, 11-dose single-agent curve fit; conditions: 72 h, read-out: EC50 [nM]
In short: as §1

BxPC-3 [19] = test system: BxPC-3; set-up: Viability of PDAC cell lines, ATPlite luminescence, 11-dose single-agent curve fit; conditions: Homo sapiens, BXPC-3, 72 h, read-out: EC50 [nM]
In short: as §1

PaTu-8988-T [20] = test system: PaTu-8988-T; set-up: Viability of PDAC cell lines, ATPlite luminescence, 11-dose single-agent curve fit; conditions: Homo sapiens, PaTu 8988t, 72 h, read-out: EC50 [nM]
In short: as §1

PSN-1 [21] = test system: PSN-1; set-up: Viability of PDAC cell lines, ATPlite luminescence, 11-dose single-agent curve fit; conditions: Homo sapiens, PSN1, 72 h, read-out: EC50 [nM]
In short: as §1

FAMPAC [22] = test system: FAMPAC; set-up: Viability of PDAC cell lines, ATPlite luminescence, 11-dose single-agent curve fit; conditions: 72 h, read-out: EC50 [nM]
In short: as §1

SMILES | EC50 (HuP-T4) | EC50 (HPDE [1]) | EC50 (Capan-1 [2]) | EC50 (PSN-1 [3]) | EC50 (Dan-G [4]) | EC50 (BxPC-3 [5]) | EC50 (Suit2-07 [6]) | EC50 (PANC-1 [7]) | EC50 (AsPC-1 [8]) | EC50 (PaTu-8988-T [9]) | EC50 (Colo-357 [10]) | EC50 (FAMPAC [11]) | EC50 (MiaPaCa-2) | EC50 (PANC-1 [12]) | EC50 (AsPC-1 [13]) | EC50 (Colo-357 [14]) | EC50 (HPDE [15]) | other results
COc1cc(OC)c(/C=C/S(=O)(=O)Cc2ccc(OC)c(NCC(=O)O)c2)c(OC)c1 [Rigosertib] | 809 nM | 48.2 nM | 178 nM | 86.5 nM | 66 nM | 63.2 nM | 2170 nM | 313 nM | 863 nM | 607 nM | 256 nM | 28.2 nM | 324 nM |  |  |  |  | 
CNC(=O)c1cc(Oc2ccc(NC(=O)Nc3ccc(Cl)c(C(F)(F)F)c3)cc2)ccn1 [Sorafenib] | 10200 nM |  | 8320 nM | 3820 nM | 7810 nM | 10200 nM | 9770 nM |  |  | > 10000 nM |  | > 10000 nM | > 10000 nM | 7780 nM | > 10000 nM | 4370 nM | 7960 nM | 
CN1CCC(COc2cnc(-c3cccc(Cn4nc(-c5cccc(C#N)c5)ccc4=O)c3)nc2)CC1 [Tepotinib] | 268 nM | 7650 nM | 23.4 nM | 4160 nM | 8.91 nM | 10300 nM | 7810 nM | 3.11 nM | > 10000 nM | 6390 nM | 11.5 nM | > 10000 nM | 7010 nM |  |  |  |  | 
O=C1NC(=O)[C@@H](c2cn3c4c(cccc24)CCC3)[C@@H]1c1c[nH]c2ccccc12 [Tivantinib] | > 10000 nM | 143 nM | 603 nM | 215 nM | 412 nM |  | 191 nM | 389 nM | 346 nM | 347 nM | 536 nM | 317 nM | 313 nM |  |  |  |  | 
CNC(=O)c1cc(Oc2ccc(NC(=O)Nc3ccc(Cl)c(C(F)(F)F)c3)c(F)c2)ccn1 [Regorafenib] | > 10000 nM |  | 6350 nM | 1430 nM | 4480 nM | 7410 nM | > 10000 nM | > 10000 nM | 2150 nM | > 10000 nM |  | > 10000 nM | 4480 nM |  |  | 7480 nM | 9210 nM | 
COc1cc2nccc(Oc3ccc(NC(=O)Nc4cc(C)on4)c(Cl)c3)c2cc1OC [Tivozanib] | 4120 nM | > 10000 nM | 9830 nM | 5040 nM | > 10000 nM | > 10000 nM |  |  |  | > 10000 nM | 6590 nM | > 10000 nM | > 10000 nM | > 10000 nM | 6600 nM |  |  | EC50 (Suit2-07 [16]): > 10000 nM
CCCCCCCCCCCCCCCCCCOP(=O)([O-])OC1CC[N+](C)(C)CC1 [Perifosine] | 0.04 nM |  |  | 2340 nM |  |  | 2140 nM | 2590 nM |  |  | > 10000 nM | 3030 nM | 2990 nM |  | > 10000 nM |  | 1280 nM | EC50 (Capan-1 [17]): > 10000 nM; EC50 (Dan-G [18]): > 10000 nM; EC50 (BxPC-3 [19]): 1410 nM; EC50 (PaTu-8988-T [20]): 9320 nM
CN1CCN(CCOc2cc(OC3CCOCC3)c3c(Nc4c(Cl)ccc5c4OCO5)ncnc3c2)CC1 [Saracatinib] | > 10000 nM |  | 2210 nM |  | 1160 nM | 863 nM | 1340 nM |  |  |  |  | 4910 nM | 51.6 nM | 142 nM | 4140 nM | 869 nM | 1430 nM | EC50 (PSN-1 [21]): 4260 nM; EC50 (PaTu-8988-T [20]): 244 nM
Cc1nc(-c2cn3c(n2)-c2ccc(-c4cnn(C(C)(C)C(N)=O)c4)cc2OCC3)n(C(C)C)n1 [Taselisib] | 19.8 nM |  | 2920 nM |  | 37.1 nM | 245 nM | 141 nM | 1570 nM | 873 nM | 459 nM | 27.1 nM |  | 446 nM |  |  |  | 826 nM | EC50 (PSN-1 [21]): 7930 nM; EC50 (FAMPAC [22]): > 10000 nM
C[C@@H](Oc1cc(-c2cnn(C3CCNCC3)c2)cnc1N)c1c(Cl)ccc(F)c1Cl [Crizotinib] | 2760 nM |  |  | 10200 nM | 2500 nM | > 10000 nM | 2260 nM | > 10000 nM | 7880 nM | > 10000 nM | 3820 nM | 5990 nM | 840 nM |  |  |  | 8110 nM | EC50 (Capan-1 [17]): 1780 nM
